Measurements published in patent US8703705B2, “Modified factor VIII peptides” (Apitope International NV, priority 2009, dated 2014).
No end group written: not given here.

Experiments:
Solubility of peptide = type: physicochemical
[1] = system: FVIII-DR2+ T cell hybridoma clones; test: FVIII peptide specificity of T cell hybridomas generated from FVIII-/- HLA-DR2+ mice (IL-2 ELISA); type: cell-based, mouse; settings: of 19 hybridomas specific for factor VIII; factor VIII deficient HLA-DR2 mice
Description: Factor VIII deficient mice expressing HLA-DR2 were immunised with factor VIII in adjuvant. Spleen cells from the immunised mice were restimulated in vitro with factor VIII and the resulting lymphoblasts were fused with BW5147, as described above. T-cell hybridomas were screened for their response to the 12 predicted peptides. Yet again, the majority of hybridomas responded to peptides DNIMV (SEQ ID NO: 11) and PRCLT (SEQ ID NO: 9). Of 19 hybridomas specific for factor VIII, 10 responded to DNIMV (SEQ ID NO: 11), 6 to PRCLT (SEQ ID NO: 9), 1 to PPIIA (SEQ ID NO: 4), 1 to SLYIS (SEQ ID NO: 3) and 1 to DTLLI (SEQ ID NO: 8).
The same method was followed as for (ii), except the mice were FVIII-deficient and HLA-DR2+.

LNC from FVIII-DR2+ mice = test: Recall responses of lymph node cells from FVIII-DR2+ mice primed with rhFVIII/CFA; type: cell-based, mouse; settings: FVIII-DR2+ animals immunised with factor VIII in adjuvant; FIG. 3
Description: HLA-DR2 transgenic mice were crossed with factor VIII deficient mice to create a model of haemophilia expressing the human HLA class II MHC molecule.
These FVIII-DR2+ animals were immunised with factor VIII in adjuvant. Draining lymph nodes were isolated and tested for their response to the peptide panel.
The same method was followed as for (i), except the mice were FVIII-deficient, HLA-DR2+ and murine MHC class II null.

[2] = system: FVIII+DR2+ T cell hybridoma clones; test: FVIII peptide specificity of T cell hybridomas generated from DR2+ mice (IL-2 ELISA); type: cell-based, mouse; settings: for number of hybridomas responding to peptide: of the 27 hybridomas screened, 20 μg/ml peptide, IL-2
Description: HLA-DR2 mice were first immunised with factor VIII in adjuvant. Spleen cells from immune mice were restimulated in vitro with factor VIII and the resulting lymphoblasts were fused with the BW5147 thymoma using polyethylene glycol.
T-cell hybridomas were selected in HAT medium and the hybridomas cloned and tested for their response to factor VIII. The hybridomas were then screened for their response to the 12 predicted peptides.
HLA-DR2+ murine MHC class II null mice were immunised as above. On day 10 draining lymph nodes were removed and lymphocytes cultured at 2.5×10^6 cells/ml, 1 ml/well in 24 well plates in the presence of 20 μg/ml rhFVIII for 3 days. Following this stimulation, lymphocytes were recovered, washed and fused with TCRα^−β^− BW fusion partner cells at a ratio of 4 BW cells to 1 lymphocyte, using polyethylene glycol as described by Nelson et al (1980) PNAS 77(5):2866. Fused cells were carefully washed and then plated out in flat bottomed 96 well plates for 2 days before the addition of HAT medium to select for T cell hybridomas. Cells were monitored for growth and approximately 10 days after fusions were performed, individual clones were selected and transferred to 24 well plates in HAT medium. Clones were maintained in HAT medium for at least 2 weeks before being weaned into HT medium and then complete medium. Clones were tested for antigenic specificity by culturing 100 μl of hybridoma cells with 5×10^4 Mgar cells in the presence and absence of 20 μg/ml rhFVIII overnight. Supernatants were then collected and assessed for IL-2 production by ELISA, with clones producing IL-2 in response to rhFVIII being considered positive for FVIII-specificity. To investigate the repertoire of predicted FVIII peptides FVIII-specific clones were again tested for IL-2 production, following overnight incubation with 20 μg/ml of each of the 12 peptides.

[3] = system: FVIII-/- clones with fresh or fixed Mgar cells; test: Apitope test: presentation by fresh or paraformaldehyde-fixed Mgar cells to hybridoma clones, IL-2 by ELISA; type: cell-based, mouse; settings: Mgar cells fresh or fixed with 1% paraformaldehyde, 20 μg/ml, FIG. 5
Description: In order to be an apitope, a peptide must be capable of binding to an MHC class I or II molecule without further antigen processing (i.e. trimming) and be presented to a T cell. In the present case, the capacity of peptides to be presented by fixed APC was investigated.
Mgar cells were either fresh or fixed with 1% paraformaldehyde. Clones were tested for antigenic specificity by culturing 100 μl of hybridoma cells with 5×10^4 Mgar cells in the presence and absence of 20 μg/ml rhFVIII or peptide epitopes overnight. Supernatants were then collected and assessed for IL-2 production by ELISA.

HLA-DR2 transgenic mice = test: Tolerisation of FVIII-specific responses in DR2+ mice by peptide pre-treatment before priming with rhFVIII/CFA; type: in vivo, mouse; settings: 3 x 100 μg i.p. in PBS prior to priming with rhFVIII/CFA; FIG. 6
Description: HLA-DR2 transgenic mice were treated with either of the two soluble peptides, or PBS as a control, prior to immunisation with factor VIII in adjuvant. Draining lymph nodes were isolated and the cells restimulated in vitro with factor VIII protein in order to assess the immune status of the mice.
HLA-DR2+ murine MHC class II null mice were treated 3 times with 100 μg of DNIMV (SEQ ID NO: 11), PRCLT (SEQ ID NO: 9) or PPIIA (SEQ ID NO: 4) dissolved in PBS, or the equivalent volume of PBS alone. Peptides were administered intraperitoneally, with 3-4 days between each dose. Following the final administration, mice were primed with rhFVIII emulsified in complete Freunds adjuvant as for (i). 10 days later, draining lymph nodes were recovered and lymphocytes subsequently cultured in vitro with rhFVIII, or each of the tolerising peptides as well as control antigens, for 72 hours before the addition of tritiated thymidine as for (i). (vi) Tolerisation of FVIII-Specific Responses in DR2+Mice by Pre-Treatment with a Combination Immunodominant FVIII Peptides

DNIMVTFRNQASRPY [DNIMV, DNIMVTFRNQASRPY]
solubility (Solubility of peptide): partly, but not completely soluble

DTLLIIFKNQASRPY (listed as Homo sapiens) [FVIII 15mer peptide, first AA 478]
number of hybridomas responding to peptide [1]: 1

EDNIMVTFRNQASR [EDNIMV, EDNIMVTFRNQASR]
solubility (Solubility of peptide): sufficiently soluble to allow intranasal peptide delivery | solubility relative to parent peptide (Solubility of peptide; compared with DNIMV): more soluble than DNIMV

GTLMVFFGNVDSSGI (listed as Homo sapiens) [FVIII 15mer peptide, first AA 2140]
response of draining lymph node cells to peptide (LNC from FVIII-DR2+ mice): weak response

PPIIARYIRLHPTHY (listed as Homo sapiens) [FVIII 15mer peptide, first AA 2161]
character of hybridoma response to peptide ([2]; 27 hybridomas screened): weaker and less specific | number of hybridomas responding to peptide [2]: 3 | number of hybridomas responding to peptide [1]: 1

PRCLTRYYSSFVNME (listed as Homo sapiens) [FVIII 15mer peptide, first AA 545]
number of hybridomas responding to peptide [2]: 3 | response of draining lymph node cells to peptide (LNC from FVIII-DR2+ mice): responded well | number of hybridomas responding to peptide [1]: 6 | presentation by live and fixed APC (function as apitope) [3]: presented by both live and fixed mgar cells | suppression of the immune response to factor VIII (LNC recall to FVIII) (HLA-DR2 transgenic mice): substantial suppression of the immune response to factor VIII

RYLRIHPQSWVHQIA (listed as Homo sapiens) [FVIII 15mer peptide, first AA 2322]
response of draining lymph node cells to peptide (LNC from FVIII-DR2+ mice): significant response

SLYISQFIIMYSLDG (listed as Homo sapiens) [FVIII 15mer peptide, first AA 2114]
number of hybridomas responding to peptide [1]: 1
